A word on the solubility: it is the concentration that dissolves in the medium under given conditions.

Several values for one entry are separate records, joined by “and”; a condition that tells them apart may be missing. Equal entries are not always repeated. Where two headings read alike, the source gives them in different places.

Consider twelve molecules from publication PMC5155426, “Organic Redox Species in Aqueous Flow Batteries: Redox Potentials, Chemical Stability and Solubility” (Scientific Reports, 2016).

The conditions of series [1]: cited from earlier work; for chemical stability (in water): ref 29 (tetracyano benzoquinone), 30 (dicyano dichloro benzoquinone), 31 (tetracarboxyl para benzoquinone), 32 (duroquinone).
Series [2] is described as follows: CV of GC electrode ground with pure anthraquinone (Pourbaix diagram). The class given is physicochemical. The note with it: for E0' of unsubstituted AQ: surface-attached AQ on GC electrode. The source says: Organic R edox Species in Aqueous F low Batteries: R edox Potentials, C hem ical Stab ilit y and So lub ilit y S2: Pure Anthraquinone Pourbaix diagram
The redox potential of pure 9,10 -anthraquinone (Sigma-Aldrich, 97%) was estimated in aqueous solutions at different pH values by measuring the CV response of a GC electrode that had been freshly grinded with anthraquinone mixed with acetone to yield a surface covered/attached species. The CVs are shown in Figure 2, and it is noticed that as the pH increases, there is a significant side- reaction, and it was only possible to obtain reliable data up to pH 10. Thus, the redox potential at pH 13 is only extrapolated. The solutions were freshly prepared and were: 1 M H2SO4 f or pH 0, 0.2 M HCl/KCl buffer for pH 2, Reagecon Technical buffers for pH 4 and 7, 0 . 2 M acetate buffer f or pH 5 and Radiometer Analytical buffer (carbonate) for pH 10.
Figure 2 CVs for the anthraquinone-grinded GC electrode at different […]
Figure 3: The observed standard potential as a function of pH (right).
The line represents linear regression data. Colored arrows indicates the peaks interpreted as the pure AQ peaks used for the Pourbaix […]

A short description of series [3]: TEMPOL stability in aqueous buffer. The class given is physicochemical. As to conditions: after 30 days, uncharged state. The protocol:
As an alternative to quinones, the nitroxide radical TEMPOL, was tested. […] This behaviour is similar to previous studies. […] A few other nitrogen-containing redox active species (Fig. 2 and Supplementary, S7) were included.

Series [4] can be described thus: Cyclic voltammetry: formal redox potential, peak current ratio, electrochemical reversibility. The class given is physicochemical. The protocol:
The investigated compounds were used as-purchased and without any purification. […] For each series of CVs, a freshly polished electrode was used. The CVs for soluble compounds in 1 mM concentration were recorded in a glass beaker with a customized lid in nitrogen purged solutions of three different pHs, namely pH 0 (1 M H2SO4), pH 7 (0.5 M phosphate buffer) and pH 13 (1 M NaOH). The pH of the NaOH solution is taken as 13 to account for carbonization of the solution with exposure to air. A background CV was recorded before each CV experiment to exclude background contaminations. The CVs of insoluble compounds in 1 M H2SO4, or 0.5 M phosphate buffer were recorded as follows: 6 mL of the supporting electrolyte was mixed with approximately 4 mL of acetone, and then a small amount of the quinone was added so that its concentration was around 1 mM.
Each CV was analyzed in terms of peak potentials and peak currents. Peak currents were determined by subtracting a polynomial fit of the background from the recorded current as exemplified in Supplementary, S1. A plot of the absolute values of the peak currents to the square root of the scan rate was constructed and, when reasonable, a linear fit included to evaluate the electrochemical (Nernstian) reversibility of the electrochemical reaction. The peak current Ip for reversible reactions are given by equation (1).
Where F is the Faraday constant, R the gas constant, T the temperature, n the number of electron transferred, A the area of the electrode, DOthe diffusion coefficient and CO^*the bulk concentration of the analyte and v the scan rate. The peak current ratio is expected to be close to one for reversible species. The formal redox potential (E^0’), which is the adjusted form of the standard redox potential, where effects of the medium is taken into account, is reported here as the midpoint potential between the two peak potentials in the CV[24]. All half-cell potentials in this work refer to the normal hydrogen electrode (VNHE).

The nature of series [5]: pKa of the central (hydro)quinone groups estimated from the Pourbaix diagram. The class given is physicochemical. As to conditions: aqueous media, estimated from slope change in Pourbaix diagram, Fig. 5. The procedure:
Quinones generally undergo a reversible two-electron reduction/oxidation. The redox potential is strongly pH dependent, as the reaction may or may not involve two protons as illustrated in the scheme-of-squares mechanistic pathway in Fig. 3 [26]. At pH < pKa1, the reaction includes two protons and thus E^0’ decreases with 59 mV per pH unit (at 25 °C)[24]. At pKa1 < pH < pKa2 and pKa2 < pH only one and no protons are involved, whereby E^0’ decreases with 30 and 0 mV per pH unit, respectively. Generally, the reactions that include protons are slower and result in a lower electrochemical rate constant (k0) and may ultimately lead to higher charge-transfer resistance in the RFB. Thus, the choice of pH in the RFB environment strongly influences quinone electrochemical performance.
Similarly to sulfonated AQs, the positions of the hydroxyl groups affect E^0’, but in acidic only to a small extent. […] The three former all have the hydroxyl groups on positions close to the quinone groups. The difference in E^0’ for these hydroxylated AQs and others may be found in the pKa values of the central (hydro)quinone groups. Those are not trivial to measure given the insolubility at lower pH values for hydroxylated AQs, but they can be estimated from the Pourbaix diagram in Fig. 5 [24][26]. For instance, in the Pourbaix diagram of AQDS(2,7), E^0’ follows the expected −59 mv/pH unit from pH 0 to pH 7 (pKa1). Then the first (hydro)quinone group deprotonates, and the slope changes to 30 mV/pH unit until pH 10 (pKa2) and E^0’ becomes pH-independent. […] Thus, if one can predict or measure reasonable values for these pKa values, it should be possible to predict which ones will have a more negative or positive E^0’ at higher pH.

A short description of series [6]: Visual inspection of dissolved samples on standing (thixotropy, phase separation). The class given is physicochemical. The protocol:
Dissolved samples were left to stand for 12 hours and visually inspected for thixotropy using a vortex generator. For very insoluble compounds the amount of sample was decreased to 0.01 g and the dissolution time increased up to 24 h.
In practical RFBs thixotropy is not wanted, as the redox solutions can be kept still for long times. […] Thixotropy of AQ dyes in aqueous dispersions has been described earlier, as well as some methods to overcome the problem such as addition of polyvinylpyrrolidone to the solution[43].

Series [7] is described as follows: Aqueous solubility estimation (OECD test #105) in 1 M supporting electrolytes. As to conditions: thermodynamic from solid, Solubility. The procedure:
After each addition the test tube was ultrasonicated and/or shaken vigorously using a Vortex Generator for at least 10 minutes at room temperature. Then the tube was inspected visually for undissolved sample and the addition of supporting electrolyte solution continued until the sample seemed just dissolved. The volumes just before and after full dissolution are used for calculating the solubility interval (Supplementary, S4 and S5) and the solubility is estimated as the average between the two.

The mark [8] stands for this setting: read-out: pKa1 of the (hydro)quinone groups.
[9] abbreviates: read-out: pKa2 of the (hydro)quinone groups.
Setting [10] is: pH 0 (1 M H2SO4), midpoint of CV peak potentials, about 1 mM, acetone added for insoluble compounds.
Where [11] appears, read: 1 M H2SO4 supporting electrolyte prepared from MilliQ water, aqueous buffer, 1 M H2SO4, room temperature, interval just after / before full dissolution.
The mark [12] stands for this setting: 1 M KCl supporting electrolyte prepared from MilliQ water, saline or isotonic, 1 M KCl, room temperature.

As for `O=C1c2ccc(S(=O)(=O)O)cc2C(=O)c2ccc(S(=O)(=O)O)cc21` [AQDS(2,6), AQ-2,6-disulfonate], the “E0'” value in series [1] (pH 0) is ~0.166 VNHE.
As for `N#CC1=C(C#N)C(=O)C(C#N)=C(C#N)C1=O` [tetracyano benzoquinone], in series [1], the “E0' estimated higher than that of dicyano dichloro benzoquinone” value was 0.3 V and the “chemical stability (in water)” value was “Chemical instability in water”.
`O=C(O)C1=C(C(=O)O)C(=O)C(C(=O)O)=C(C(=O)O)C1=O` [tetracarboxyl para benzoquinone]: in series [1], the calculated standard potential is given as > 1 VNHE and the “chemical stability (in water)” value was “decomposes after synthesis”.
For `N#CC1=C(C#N)C(=O)C(Cl)=C(Cl)C1=O` [dicyano dichloro benzoquinone], in series [1], the “E0'” value is given as 0.9 VNHE and the “chemical stability (in water)” value was “readily reacts with water”.
Take `O=C1c2ccccc2C(=O)c2ccccc21` [AQ, 9,10-anthraquinone]: in series [2] (pH 0), the “E0' lower than that of HQ(1,4)” value is listed as “about 300 mV” and the “E0' of unsubstituted AQ” value came out at 0.4 VNHE. In series [2] (pH 7), the “E0' of unsubstituted AQ” value came out at 0 VNHE. Further, the “E0' of unsubstituted AQ, estimated by extrapolation in Fig. 5” value in series [2] (pH 13, reliable data only up to pH 10) is recorded as ~−0.4 VNHE.
Consider `CC1(C)CC(O)CC(C)(C)N1[O]` [TEMPOL, 4-hydroxy-2,2,6,6-tetramethylpiperidine-1-oxyl], for which the “degradation in aqueous buffer” value in series [3] is reported as “no degradation”. Besides, in series [4] (pH 7), the Electrochemical reversibility result is reported as “reversible”.
On to `O=C1c2ccc(S(=O)(=O)O)cc2C(=O)c2cc(S(=O)(=O)O)ccc21` [AQDS(2,7), 9,10-anthraquinone-2,7-disulfonate disodium], for which the values for the pKa in series [5] (setting [8]) and in series [5] (setting [9]) were 7 and 10, respectively. In addition, the Electrochemical reversibility result is reported as “Quasireversible” in series [4] (pH 0), “Quasireversible” in series [4] (pH 7) and “Reversible” in series [4] (pH 13). In addition, the Peak current ratio in series [4] (pH 0) is reported as 0.7(1); in series [4] (pH 7), 0.56(3); in series [4] (pH 13) it was 0.96(7). Further, the “formal redox potential E0'” value in series [4] (setting [10]) is 0.165 VNHE; in series [4] (pH 0 (1 M H2SO4); midpoint of CV peak potentials; about 1 mM; acetone added for insoluble compounds; 7)) it was 0.165(5) VNHE. For the same molecule, in series [6] (all supporting electrolytes, disodium form as received), the thixotropy result is recorded as “thixotropy was observed”. Besides, the “Comment: behaviour of the solution upon standing” value in series [6] (electrolyte not stated) is on record as “T hixotropic behaviour”.
With `O=C1c2ccc(O)cc2C(=O)c2ccc(O)cc21` [AQDH(2,6), 2,6-dihydroxy-9,10-anthraquinone], the solubility in series [7] (setting [11]) and in series [7] (setting [12]) was < 10 mM in each case. Also, the pKa in series [5] (setting [8]) and in series [5] (setting [9]) was > 13 throughout. For the same molecule, the figures for the Peak current ratio in series [4] (pH 0), in series [4] (pH 7) and in series [4] (pH 13) were 0.83(4), 0.9(1) and 1.1(1), respectively. Further, the “formal redox potential E0'” value in series [4] (setting [10]) is 0.039(4) VNHE and 0.04 VNHE. Moreover, in series [4] (pH 13), the Electrochemical reversibility entry is reported as “Reversible”.
For `O=C1c2cccc(O)c2C(=O)c2c(O)cccc21` [AQDH(1,8), 1,8-dihydroxy-9,10-anthraquinone], the pKa in series [5] (setting [8]) is ~4; in series [5] (setting [9]), > 13. The Electrochemical reversibility entry in series [4] (pH 13) is “Reversible”.
Take `O=C(O)c1cc(O)c2c(c1)C(=O)c1cccc(O)c1C2=O` [AQDH(4,5)CA, 4,5-dihydroxy-9,10-anthraquinone-2-carboxylic acid]: the solubility in series [7] (setting [11]) and in series [7] (setting [12]) was < 10 mM throughout. Besides, the Peak current ratio is on record as 0.39(6) in series [4] (pH 0), 0.69(8) in series [4] (pH 7) and 1.23(7) in series [4] (pH 13). Moreover, the “formal redox potential E0'” value was 0.041(9) VNHE in series [4] (setting [10]); -0.267(1) VNHE in series [4] (pH 7 (0.5 M phosphate buffer), midpoint of CV peak potentials); “around −0.53 VNHE” in series [4] (pH 13 (1 M NaOH), midpoint of CV peak potentials); -0.546(2) VNHE in series [4] (pH 13 (1 M NaOH), midpoint of CV peak potentials, listed as AQDH(4,5)C A). Moreover, the Electrochemical reversibility entry in series [4] (pH 7) is on record as “Quasireversible”; in series [4] (pH 13), “Reversible”. The “Comment: behaviour of the solution upon standing” value in series [6] (in KOH (1 M)) is “thixotropy was observed”; in series [6] (in KOH (1 M), listed as AQDH(4,5)C A), “T hixotr opic behavior”.
As for hexahydroxy anthraquinone, in series [1] (pH 13), the “experimentally obtained E0'” value is reported as “about −0.7 VNHE”.
For `CC1=C(C)C(=O)C(C)=C(C)C1=O` [duroquinone], the potential in series [1] (aqueous (acidic and neutral) solutions) is reported as 0.5 VNHE. Moreover, in series [1], the “chemical stability (in water)” value was “electrochemically reversible and chemically stable”.
